Measurements as given in patent publication US6384236B1, “N-(aroyl)glycine hydroxamic acid derivatives and related compounds” (Pfizer Inc, priority 1995, dated 2002).

melting point: 156 to 168 °C
Compound: COc1ccc(C(=O)NCC(=O)O)cc1OC1CCCC1 [Example 17]
